The record followed here is patent US5204471A, “α-trifluoromethyl-substituted, saturated bicyclic amines” (Bayer Aktiengesellschaft, priority 1991, dated 1993).

One test deals with HIV. The test can be described thus: HIV test in a cell culture (syncytia formation in infected PBLs). The class given is cell-based. The note with it: Human immunodeficiency virus 1, Lymphocyte, 72 h; HIV-infected normal human blood lymphocytes (PBLs), evaluated day 3 to 6 after infection; read-out: IC50 value (PBL), 50% suppression of virus-induced syncytia. On the procedure:
HIV test in a cell culture with slight modifications according to Pauwels et al., Journal of Virological Methods 20, pages 309-321 (1988).
Normal human blood lymphocytes (PBLs) were concentrated via Ficoll-Hypaque and stimulated with phytohaemagglutinin (90 μg/ml) and interleukin-2 (40 U/ml) in RPMI 1640, 20% fetal calf serum. For infection with the infectious HIV, the PBLs were pelletised, and the cell pellet was then suspended in 1 ml of HIV virus adsorption solution and incubated at 37° C. for 1 hour.
The virus adsorption solution was centrifuged, and the infected cell pellet was taken up in growth medium in such a manner that 1×10^5 cells were present per ml. The cells infected in this manner were pipetted into the wells of 96-well microtitre plates in such a manner that each well contained 1×10^4 cells.
The first vertical row of the microtitre plate only contained growth medium and cells which were not infected but otherwise had been treated in the same manner as described above (cell control). The second vertical row of the microtitre plate only contained HIV-infected cells (virus control) in growth medium. […]
The test batches were incubated at 37° C. until the formation of syncytia typical for HIV occurred in the untreated virus control (between day 3 and 6 after infection), which formation was then evaluated under a microscope. […]

A further test has as its target T1, HIV protease (Human immunodeficiency virus type 1 group M subtype B, UniProt P04585).
T1 construct: purified HIV protease
The test can be described thus: HIV-specific protease enzyme test (cleavage of synthetic Gag peptide, RP HPLC). In kind it is biochemical. As to conditions: purified HIV protease, HIV-1, synthetic peptide substrate; read-out: IC50 value (concentration causing 50% inhibition of the protease activity). On the procedure:
HIV-specific protease enzyme test according to J. Hansen, S. Billich, T. Schulze, S. Sukrow and K. Molling, EMBO Journal, Vol. 7, No. 6, pages […] (1988).
This test was carried out by incubation of purified HIV protease with synthetic peptide which imitates a cleavage site in the Gag precursor protein and represents an in vivo cleavage point of the HIV protease. The resulting cleavage products of the synthetic peptide were analysed by reversed-phase high performance liquid chromatography (RP HPLC). The compound obtained according to Example 11 gave an IC50 value of 5×10^-8 with HIV-1. The IC50 value indicates the concentration of the substance causing 50% inhibition of the protease activity under the test conditions.

As for `CC(C)[C@H](NC(=O)[C@H](Cc1cccc2ccccc12)CS(=O)(=O)C(C)(C)C)C(=O)N[C@@H](Cc1ccccc1)C(O)CN1CCC2CCCCC2C1C(F)(F)F` (some centres unmarked) [Example 11], the IC50 with HIV worked out at 2500 nM; on HIV protease, 50 nM.
